# Test results taken from paper doi:10.1101/2024.12.09.627564, “Cannabinoid inhibition of mechanosensitive K^+ channels” (bioRxiv, 2024).
# Read-outs that look alike come from different tables or passages of the source.
# Legend:
# Homo sapiens TRAAK = molecular target: T1, Homo sapiens TRAAK (Homo sapiens, UniProt Q9NYG8); experiment: Excised inside-out patch recording of TRAAK from Xenopus oocytes; format: biochemical; conditions: for inhibition at 1 µM: 1 μM CBD, read-out: percent inhibition
# T1 construct: The transcribed messages encode H. sapiens TRAAK amino acids 1–393; expressed in transfected cells; host or cells: Xenopus laevis oocytes, cRNA injection
# T1 sequence (Q9NYG8 1-393): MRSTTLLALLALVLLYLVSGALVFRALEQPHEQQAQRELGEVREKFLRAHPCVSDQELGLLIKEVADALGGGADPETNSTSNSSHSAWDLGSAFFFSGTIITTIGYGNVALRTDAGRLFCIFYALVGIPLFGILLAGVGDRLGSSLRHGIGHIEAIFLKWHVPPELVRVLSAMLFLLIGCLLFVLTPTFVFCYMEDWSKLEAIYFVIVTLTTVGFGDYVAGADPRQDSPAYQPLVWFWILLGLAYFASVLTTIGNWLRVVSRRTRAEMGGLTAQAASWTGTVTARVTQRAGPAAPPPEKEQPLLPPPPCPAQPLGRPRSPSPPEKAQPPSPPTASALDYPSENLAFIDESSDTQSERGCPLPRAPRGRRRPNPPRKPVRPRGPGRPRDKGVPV
# Description: (§1) For patch clamp recording from Xenopus oocytes, genes encoding full-length Homo sapiens TRAAK (UniProt Q9NYG8–2), TREK-1 (UniProt O95069), and TREK-2 (UniProt P57789) were codon optimized for eukaryotic expression, synthesized (Genewiz), and cloned into a modified pGEMHE vector using Xho1 and EcoR1 restriction sites. The transcribed messages encode H. sapiens TRAAK amino acids 1–393, TREK-1 amino acids 1–426, or TREK-2 amino acids 1–538 with an additional three amino acids (SNS) at the C terminus. TRAAK mutants were introduced by polymerase chain reaction (PCR). Linearized DNA was transcribed in vitro using T7 polymerase. Complementary RNA (0.1 to 10 ng for TRAAK, TREK-1, TREK-2, and mutants) in 50 nL H2O was injected into Xenopus laevis oocytes extracted from anesthetized frogs. Currents were recorded at 25 °C from inside-out patches excised from oocytes 1 to 5 d after RNA injection. The pipette solution contained 15 mM KCl, 135 mM NaCl, 2 mM MgCl2, and 10 mM HEPES (pH = 7.4 with KOH) and the bath solution contained 150 mM KCl and 10 mM HEPES (pH = 7.1 with KOH). Borosilicate glass pipettes were pulled to 2–5 MΩ resistance.
# Patches were evaluated with voltage-step protocols to confirm TRAAK expression and minimal non-specific leak based on reversal potential. Currents were recorded using an Axopatch 200B amplifier (Molecular Devices) at a bandwidth of 1 kHz and digitized with an Digidata 1550B (Molecular Devices) at 100–500 kHz using pClamp10.7 software. Pressure was applied with a second-generation high-speed pressure clamp device (HSPC-2-SB, ALA Scientific Instruments). Aggregated data were from patches from n ≥ 2 different cells on different days. No relevant differences were observed between patches from different cells. In an effort to minimize variability associated with differences in resting membrane tension, we targeted patches with low basal curvature and low resting channel activity and ensured measured pressure difference across the patch was as close to zero as possible at rest to prevent mechanical activation of channels. Data were analyzed using Clampfit 10.7, Excel, and Graphpad Prism software. For voltage families, the data were decimated 100x and plotted in Prism. Statistical analysis was conducted with Dunnett’s multiple comparisons test after an ordinary one-way ANOVA using Prism software.
# To avoid cannabinoid absorption to plastic, cannabinoid solutions were made in glass vials and diluted by weight, perfusion was performed using glass tubing pulled from borosilicate glass Pasteur pipettes (Fisherbrand, Cat# 13–678-20C), and recordings were performed in glass chambers. Channel activity was continuously recorded during perfusion steps. Patches were exposed to each cannabinoid concentration until a stable current level was reached (0.5–2 minutes). CBD (Cayman Chemical cat#90080) was prepared as a 10mM stock solution in DMSO, CBN (Cayman Chemical cat#25495) was prepared as a 80mM stock solution in DMSO, CBDV (Phytolab Cat#85955) was prepared as a 10mM stock solution in DMSO, and CBDP (Cayman Chemical cat#33611) was purchased as a 2.9 mM stock solution in methanol. Cannabinoids were serially diluted in bath solution to achieve working concentrations of 50 μM to 10 nM. Bath volume in the recording chamber was minimized by suction and drug-containing solutions were delivered three times to ensure establishment of desired concentration in the recording chamber. Cannabinoids were applied from low to high concentration. The recording chamber and perfusion system were washed extensively with methanol after every trial.
# The effects of cannabinoids on channel activity were quantified by the reduction in channel current evoked at 0 mV during a gap-free recording or during 200 ms long voltage families with steps ranging from −100 to +100 mV. Currents were normalized to those prior to cannabinoid application to facilitate comparisons across different patches and cells. […]
# Homo sapiens TREK-1 = molecular target: T2, Homo sapiens TREK-1 (Homo sapiens, UniProt O95069); experiment: Excised inside-out patch recording of TREK-1 from Xenopus oocytes; format: biochemical
# T2 construct: TREK-1 amino acids 1–426; expressed in transfected cells; host or cells: Xenopus laevis oocytes, cRNA injection
# T2 sequence (O95069 1-426): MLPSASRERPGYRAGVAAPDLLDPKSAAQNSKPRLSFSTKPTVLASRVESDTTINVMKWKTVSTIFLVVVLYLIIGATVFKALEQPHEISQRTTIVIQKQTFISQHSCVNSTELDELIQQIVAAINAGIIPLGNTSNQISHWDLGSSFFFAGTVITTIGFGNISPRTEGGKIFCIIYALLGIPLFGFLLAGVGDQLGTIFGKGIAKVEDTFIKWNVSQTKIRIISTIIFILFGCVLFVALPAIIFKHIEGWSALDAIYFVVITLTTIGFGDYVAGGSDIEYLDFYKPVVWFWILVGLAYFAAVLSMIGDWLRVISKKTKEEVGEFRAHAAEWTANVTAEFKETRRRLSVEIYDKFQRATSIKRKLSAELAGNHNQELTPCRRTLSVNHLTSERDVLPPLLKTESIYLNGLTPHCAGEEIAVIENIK
# Description: as §1, with “The pipette solution contained 15 mM KCl, 135 mM NaCl, 2 mM MgCl2, and 10 mM HEPES (pH = 7.4 with KOH) and the bath solution contained 150 mM KCl and 10 mM HEPES (pH = 7.1 with KOH). Borosilicate glass pipettes were pulled to 2–5 MΩ resistance.” left out
# Patches were evaluated with voltage-step protocols to confirm TRAAK expression and minimal non-specific leak based on reversal potential. Currents were recorded using an Axopatch 200B amplifier (Molecular Devices) at a bandwidth of 1 kHz and digitized with an Digidata 1550B (Molecular Devices) at 100–500 kHz using pClamp10.7 software. […] In an effort to minimize variability associated with differences in resting membrane tension, we targeted patches with low basal curvature and low resting channel activity and ensured measured pressure difference across the patch was as close to zero as possible at rest to prevent mechanical activation of channels. Data were analyzed using Clampfit 10.7, Excel, and Graphpad Prism software. […]
# To avoid cannabinoid absorption to plastic, cannabinoid solutions were made in glass vials and diluted by weight, perfusion was performed using glass tubing pulled from borosilicate glass Pasteur pipettes (Fisherbrand, Cat# 13–678-20C), and recordings were performed in glass chambers. Channel activity was continuously recorded during perfusion steps. […]
structure (smiles),measurement,setting,value
"C=C(C)[C@@H]1CCC(C)=C[C@H]1c1c(O)cc(CCCCC)cc1O [CBD, Cannabidiol]",IC50,Homo sapiens TRAAK,~145 nM
same,inhibition at 1 µM,Homo sapiens TRAAK; after mβCD treatment (high membrane tension),43 ± 13%
same,inhibition at 1 µM,Homo sapiens TRAAK; prior to mβCD treatment,91 ± 3%
same,effect on mechanical activation of TRAAK by negative pressure steps,"Homo sapiens TRAAK; 0.5, 1 and 10 μM CBD",more negative pressure was required to activate TRAAK to the same degree
same,Hill-coefficient,Homo sapiens TRAAK; TRAAK dose-response,1.3
same,fold higher affinity than RU-TRAAK-1 and −2,Homo sapiens TRAAK; TRAAK inhibitors,3–5 fold
same,concentration at which effects are evident,"Homo sapiens TRAAK; TRAAK, excised patches",1 to 10 nM
same,concentration of full inhibition,"Homo sapiens TRAAK; TRAAK, excised patches",~ 1 μM
same,fold higher concentration required for similar inhibition after mβCD treatment,Homo sapiens TRAAK; after vs prior to mβCD treatment,Approximately 10 fold
same,fold higher affinity than ruthenium red and TKDC,Homo sapiens TRAAK; nonspecific TRAAK inhibitors,greater than 10 fold
same,IC50,Homo sapiens TREK-1,1500 nM
same,Hill-coefficient,Homo sapiens TREK-1; TREK-1 dose-response,1.5
same,fold less sensitive than TRAAK,Homo sapiens TREK-1; TREK-1 vs TRAAK,~ 10 fold
